ChEMBL document CHEMBL3797052 (Eur J Med Chem, 2016)

Legend:
[1] = Antiproliferative activity against human PC3 cells assessed as cell growth at 10^-8 M after 48 hrs by sulforhodamine B assay; assay type: functional; details: PC-3, 48 h, read-out: Activity
ACHN [2] = assay: Antiproliferative activity against human ACHN cells assessed as cell growth at 10^-4 M after 48 hrs by sulforhodamine B assay; assay type: functional; details: read-out: Activity
[3] = Antiproliferative activity against human HL-60(TB) cells assessed as cell growth at 10^-6 M after 48 hrs by sulforhodamine B assay; assay type: functional; details: HL-60, 48 h, read-out: Activity
[4] = Antiproliferative activity against human HL-60(TB) cells assessed as cell growth at 10^-4 M after 48 hrs by sulforhodamine B assay; assay type: functional; details: HL-60, 48 h, read-out: Activity
KM12 = assay: Antiproliferative activity against human KM12 cells assessed as cell growth at 10^-4 M after 48 hrs by sulforhodamine B assay; assay type: functional; details: KM12, 48 h, read-out: Activity
[5] = system: Serine/threonine-protein kinase B-raf (Homo sapiens), P15056 [V600E]; assay: Inhibition of BRAF V600E mutant (unknown origin) at 10 uM measured after 40 mins by scintillation counting
[6] = Antiproliferative activity against human HCC2998 cells assessed as cell growth at 10^-6 M after 48 hrs by sulforhodamine B assay; assay type: functional; details: HCC 2998, 48 h, read-out: Activity
M14 = assay: Antiproliferative activity against human M14 cells assessed as cell growth at 10^-8 M after 48 hrs by sulforhodamine B assay; assay type: functional; details: M14, 48 h, read-out: Activity
ACHN [7] = assay: Antiproliferative activity against human ACHN cells assessed as growth inhibition after 48 hrs by sulforhodamine B assay; assay type: functional
[8] = Antiproliferative activity against human UACC257 cells assessed as growth inhibition after 48 hrs by sulforhodamine B assay; assay type: functional; details: UACC-257, 48 h
[9] = Antiproliferative activity against human LOXIMVI cells assessed as cell growth at 10^-6 M after 48 hrs by sulforhodamine B assay; assay type: functional; details: LOX IMVI, read-out: Activity
SN12C = assay: Antiproliferative activity against human SN12C cells assessed as cell growth at 10^-8 M after 48 hrs by sulforhodamine B assay; assay type: functional; details: read-out: Activity
[10] = Antiproliferative activity against human BT549 cells assessed as growth inhibition after 48 hrs by sulforhodamine B assay; assay type: functional; details: BT-549, 48 h
SK-MEL-5 = assay: Antiproliferative activity against human SK-MEL-5 cells assessed as cell growth at 10^-4 M after 48 hrs by sulforhodamine B assay; assay type: functional; details: SK-MEL-5, 48 h, read-out: Activity
[11] = Antiproliferative activity against human OVCAR8 cells assessed as cell growth at 10^-6 M after 48 hrs by sulforhodamine B assay; assay type: functional; details: OVCAR-8, 48 h, read-out: Activity
[12] = Antiproliferative activity against human DU145 cells assessed as cell growth at 10^-6 M after 48 hrs by sulforhodamine B assay; assay type: functional; details: DU-145, 48 h, read-out: Activity
[13] = Antiproliferative activity against human OVCAR4 cells assessed as cell growth at 10^-6 M after 48 hrs by sulforhodamine B assay; assay type: functional; details: OVCAR-4, 48 h, read-out: Activity
[14] = Antiproliferative activity against human LOXIMVI cells assessed as cell growth at 10^-7 M after 48 hrs by sulforhodamine B assay; assay type: functional; details: LOX IMVI, read-out: Activity
[15] = Antiproliferative activity against human TK10 cells assessed as growth inhibition after 48 hrs by sulforhodamine B assay; assay type: functional; details: TK-10, 48 h
SK-MEL-28 = assay: Antiproliferative activity against human SK-MEL-28 cells assessed as cell growth at 10^-7 M after 48 hrs by sulforhodamine B assay; assay type: functional; details: SK-MEL-28, 48 h, read-out: Activity
[16] = Antiproliferative activity against human Hs 578T cells assessed as growth inhibition after 48 hrs by sulforhodamine B assay; assay type: functional
A549 = assay: Antiproliferative activity against human A549/ATCC cells assessed as cell growth at 10^-6 M after 48 hrs by sulforhodamine B assay; assay type: functional; details: A549, 48 h, read-out: Activity
[17] = Antiproliferative activity against human HCT116 cells assessed as cell growth at 10^-6 M after 48 hrs by sulforhodamine B assay; assay type: functional; details: HCT-116, 48 h, read-out: Activity
[18] = Antiproliferative activity against human MOLT4 cells assessed as cell growth at 10^-6 M after 48 hrs by sulforhodamine B assay; assay type: functional; details: MOLT-4, 48 h, read-out: Activity
[19] = Antiproliferative activity against human SW620 cells assessed as growth inhibition after 48 hrs by sulforhodamine B assay; assay type: functional; details: SW-620, 48 h
[20] = Antiproliferative activity against human PC3 cells assessed as cell growth at 10^-7 M after 48 hrs by sulforhodamine B assay; assay type: functional; details: PC-3, 48 h, read-out: Activity
[21] = Antiproliferative activity against human IGROV1 cells assessed as growth inhibition after 48 hrs by sulforhodamine B assay; assay type: functional; details: IGROV-1, 48 h
NCI-H522 = assay: Antiproliferative activity against human NCI-H522 cells assessed as cell growth at 10^-4 M after 48 hrs by sulforhodamine B assay; assay type: functional; details: NCI-H522, 48 h, read-out: Activity
[22] = Antiproliferative activity against human OVCAR3 cells assessed as growth inhibition after 48 hrs by sulforhodamine B assay; assay type: functional; details: OVCAR-3, 48 h
[23] = Antiproliferative activity against human TK10 cells assessed as cell growth at 10^-7 M after 48 hrs by sulforhodamine B assay; assay type: functional; details: TK-10, 48 h, read-out: Activity
[24] = Antiproliferative activity against human RXF393 cells assessed as cell growth at 10^-6 M after 48 hrs by sulforhodamine B assay; assay type: functional; details: RXF 393, 48 h, read-out: Activity
[25] = Antiproliferative activity against human IGROV1 cells assessed as cell growth at 10^-8 M after 48 hrs by sulforhodamine B assay; assay type: functional; details: IGROV-1, 48 h, read-out: Activity
NCI-H23 = assay: Antiproliferative activity against human NCI-H23 cells assessed as cell growth at 10^-7 M after 48 hrs by sulforhodamine B assay; assay type: functional; details: NCI-H23, 48 h, read-out: Activity
EKVX = assay: Antiproliferative activity against human EKVX cells assessed as cell growth at 10^-8 M after 48 hrs by sulforhodamine B assay; assay type: functional; details: read-out: Activity
[26] = Antiproliferative activity against human SNB75 cells assessed as cell growth at 10^-7 M after 48 hrs by sulforhodamine B assay; assay type: functional; details: SNB-75, 48 h, read-out: Activity
U-251 = assay: Antiproliferative activity against human U251 cells assessed as cell growth at 10^-6 M after 48 hrs by sulforhodamine B assay; assay type: functional; details: U-251, 48 h, read-out: Activity
[27] = read-out: LC50 (the source's name)

Chain of Serine/threonine-protein kinase B-raf (Homo sapiens), P15056 [V600E] (P15056 whole entry V600E): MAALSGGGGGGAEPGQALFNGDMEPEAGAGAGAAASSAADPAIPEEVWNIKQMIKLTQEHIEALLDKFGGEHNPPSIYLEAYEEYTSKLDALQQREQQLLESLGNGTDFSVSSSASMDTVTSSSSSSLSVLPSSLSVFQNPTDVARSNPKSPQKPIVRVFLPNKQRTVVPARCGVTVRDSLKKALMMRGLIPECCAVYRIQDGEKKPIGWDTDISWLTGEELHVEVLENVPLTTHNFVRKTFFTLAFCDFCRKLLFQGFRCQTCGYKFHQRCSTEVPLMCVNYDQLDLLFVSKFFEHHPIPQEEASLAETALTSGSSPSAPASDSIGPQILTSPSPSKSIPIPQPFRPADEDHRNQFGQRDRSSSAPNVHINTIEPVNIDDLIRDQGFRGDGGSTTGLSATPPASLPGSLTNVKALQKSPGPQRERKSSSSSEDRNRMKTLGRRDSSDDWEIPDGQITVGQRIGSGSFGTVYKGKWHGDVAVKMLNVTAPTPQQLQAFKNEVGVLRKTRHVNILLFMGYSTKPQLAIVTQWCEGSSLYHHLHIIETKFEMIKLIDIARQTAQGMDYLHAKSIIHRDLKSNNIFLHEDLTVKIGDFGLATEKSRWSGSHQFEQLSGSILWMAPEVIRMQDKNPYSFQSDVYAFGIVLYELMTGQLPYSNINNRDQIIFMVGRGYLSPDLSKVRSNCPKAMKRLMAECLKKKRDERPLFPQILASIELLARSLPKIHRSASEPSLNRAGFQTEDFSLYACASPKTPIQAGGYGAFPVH

CNC(=O)c1cc(Oc2ccc3nc(NC(=O)Nc4ccc(Cl)c(C(F)(F)F)c4)sc3c2)ccn1
growth at 0.01 µM [1]: 92% | growth at 100 µM (ACHN [2]): -62% | growth at 1 µM [3]: 96% | growth at 100 µM [4]: 59% | growth at 100 µM (KM12): 45% | inhibition [5]: 55.1% | growth at 1 µM [6]: 94% | growth at 0.01 µM (M14): 90% | GI50 (ACHN [7]): 1.85 µM | LC50 (ACHN [7]): 7.82 µM | TGI (ACHN [7]): 3.8 µM | GI50 [8]: 3.37 µM | TGI [8]: > 100 µM | CC50 [8, 27]: > 100 µM | growth at 1 µM [9]: 87% | growth at 0.01 µM (SN12C): 97% | GI50 [10]: 2.64 µM | TGI [10]: 9.73 µM | CC50 [10, 27]: > 100 µM | growth at 100 µM (SK-MEL-5): 57% | growth at 1 µM [11]: 103% | growth at 1 µM [12]: 82% | growth at 1 µM [13]: 82% | growth at 0.1 µM [14]: 102% | GI50 [15]: 2.29 µM | TGI [15]: 4.62 µM | CC50 [15, 27]: 9.32 µM | growth at 0.1 µM (SK-MEL-28): 92% | GI50 [16]: 1.53 µM | TGI [16]: 6.27 µM | CC50 [16, 27]: > 100 µM | growth at 1 µM (A549): 90% | growth at 1 µM [17]: 80% | growth at 1 µM [18]: 95% | GI50 [19]: 2.99 µM | TGI [19]: > 100 µM | CC50 [19, 27]: > 100 µM | growth at 0.1 µM [20]: 87% | GI50 [21]: 2.02 µM | TGI [21]: 5.12 µM | CC50 [21, 27]: > 100 µM | growth at 100 µM (NCI-H522): 23% | GI50 [22]: 2.11 µM | TGI [22]: 4.02 µM | growth at 0.1 µM [23]: 105% | growth at 1 µM [24]: 88% | growth at 0.01 µM [25]: 102% | growth at 0.1 µM (NCI-H23): 97% | growth at 0.01 µM (EKVX): 97% | growth at 0.1 µM [26]: 81% | growth at 1 µM (U-251): 89%
